Assay results from ChEMBL document CHEMBL1146871, “Hydrazides of clozapine: a new class of D1 dopamine receptor subtype selective antagonists” (Bioorg Med Chem Lett, 2006).
pKi: −log10 of the molar value.

Key:
D(1A) dopamine receptor = D(1A) dopamine receptor (Homo sapiens, UniProt P21728); experiment: Displacement of [3H]SCH 23390 from human dopamine D1 receptor expressed in CHO cells; format: cell-based
D(2) dopamine receptor = D(2) dopamine receptor (Homo sapiens, UniProt P14416); experiment: Displacement of [3H]methylspiperone from human dopamine D2 receptor expressed in CHO cells; format: cell-based
Sequence of D(2) dopamine receptor (P14416 whole entry): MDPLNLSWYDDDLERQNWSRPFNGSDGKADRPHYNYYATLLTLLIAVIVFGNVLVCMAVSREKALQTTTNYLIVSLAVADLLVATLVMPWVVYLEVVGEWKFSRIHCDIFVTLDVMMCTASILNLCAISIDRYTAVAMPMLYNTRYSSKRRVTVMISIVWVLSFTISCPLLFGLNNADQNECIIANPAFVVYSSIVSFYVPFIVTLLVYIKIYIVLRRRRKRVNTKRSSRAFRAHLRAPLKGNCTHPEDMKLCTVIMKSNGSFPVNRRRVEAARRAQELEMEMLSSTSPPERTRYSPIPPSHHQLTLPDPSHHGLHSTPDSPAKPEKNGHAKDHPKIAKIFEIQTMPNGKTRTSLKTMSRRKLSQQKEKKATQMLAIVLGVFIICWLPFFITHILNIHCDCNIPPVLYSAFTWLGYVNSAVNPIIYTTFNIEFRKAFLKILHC

Sequence of D(1A) dopamine receptor (P21728 whole entry): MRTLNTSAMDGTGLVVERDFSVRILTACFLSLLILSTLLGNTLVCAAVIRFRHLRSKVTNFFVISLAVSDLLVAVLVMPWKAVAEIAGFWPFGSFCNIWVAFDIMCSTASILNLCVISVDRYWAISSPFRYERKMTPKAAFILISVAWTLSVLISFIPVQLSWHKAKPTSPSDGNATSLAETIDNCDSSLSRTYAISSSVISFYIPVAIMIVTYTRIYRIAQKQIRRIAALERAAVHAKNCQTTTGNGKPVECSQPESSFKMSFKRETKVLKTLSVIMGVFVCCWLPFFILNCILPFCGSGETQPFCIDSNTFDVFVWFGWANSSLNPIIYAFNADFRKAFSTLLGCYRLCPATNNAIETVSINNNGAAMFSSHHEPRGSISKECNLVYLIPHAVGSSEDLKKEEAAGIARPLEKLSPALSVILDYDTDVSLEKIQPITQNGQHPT

| Compound | pKi (D(1A) dopamine receptor) | pKi (D(2) dopamine receptor) |
| --- | --- | --- |
| CN1CCN(C2=Nc3cc(Cl)ccc3N(NC(=O)c3nccc4ccccc34)c3ccccc32)CC1 | 7.64 | 6.32 |
| CN1CCN(C2=Nc3cc(Cl)ccc3N(NC(=O)c3cccs3)c3ccccc32)CC1 | 7.85 | 5.83 |
| CN1CCN(C2=Nc3cc(Cl)ccc3N(NC(=O)C(C)(C)C)c3ccccc32)CC1 | 7.01 |  |
| Cc1cccc(C(=O)NN2c3ccc(Cl)cc3N=C(N3CCN(C)CC3)c3ccccc32)c1 | 8.52 | 6.29 |
| CN1CCN(C2=Nc3cc(Cl)ccc3N(NC(=O)c3c(Cl)cccc3Cl)c3ccccc32)CC1 | 8.47 | 6.62 |
| CCOc1csc(C(=O)NN2c3ccc(Cl)cc3N=C(N3CCN(C)CC3)c3ccccc32)c1 | 8.00 | 6.74 |
| CN1CCN(C2=Nc3cc(Cl)ccc3N(NC(=O)c3ccc(C(F)(F)F)cc3)c3ccccc32)CC1 | 7.17 |  |
| CN1CCN(C2=Nc3cc(Cl)ccc3N(NC(=O)c3cccnc3Cl)c3ccccc32)CC1 | 7.96 | 6.20 |
| CN1CCN(C2=Nc3cc(Cl)ccc3N(NC(=O)c3ccccc3Oc3ccccc3)c3ccccc32)CC1 | 7.29 | 6.37 |
| CN1CCN(C2=Nc3cc(Cl)ccc3N(NC(=O)c3ccc(Cl)c(Cl)c3)c3ccccc32)CC1 | 7.92 | 5.19 |
| CN1CCN(C2=Nc3cc(Cl)ccc3N(NC(=O)c3ccc(Br)cc3)c3ccccc32)CC1 | 7.85 | 5.62 |
| CN1CCN(C2=Nc3cc(Cl)ccc3N(NC(=O)c3ccccc3)c3ccccc32)CC1 | 6.80 | 5.94 |
| CN1CCN(C2=Nc3cc(Cl)ccc3N(NC(=O)c3ccc(Cl)cc3)c3ccccc32)CC1 | 7.46 | 5.03 |
| CCOc1c(C(=O)NN2c3ccc(Cl)cc3N=C(N3CCN(C)CC3)c3ccccc32)sc2ccccc12 | 7.55 | 6.71 |
| CN1CCN(C2=Nc3cc(Cl)ccc3N(NC(=O)c3cccc(F)c3)c3ccccc32)CC1 | 7.33 | 6.04 |
| COc1cccc(C(=O)NN2c3ccc(Cl)cc3N=C(N3CCN(C)CC3)c3ccccc32)c1 | 7.89 | 5.95 |
| CN1CCN(C2=Nc3cc(Cl)ccc3N(NC(=O)c3ccc4ccccc4n3)c3ccccc32)CC1 | 8.00 | 6.03 |
| CN1CCN(C2=Nc3cc(Cl)ccc3N(NC(=O)C3CCC3)c3ccccc32)CC1 | 6.82 |  |
| CC(=O)NN1c2ccc(Cl)cc2N=C(N2CCN(C)CC2)c2ccccc21 | 6.31 |  |

Continued by rising pKi (D(1A) dopamine receptor), values first:

| pKi (D(1A) dopamine receptor) | pKi (D(2) dopamine receptor) | Compound |
| --- | --- | --- |
| 6.55 | 6.19 | CN1CCN(C2=Nc3cc(Cl)ccc3N(N)c3ccccc32)CC1 |
| 6.63 | 5.42 | CN1CCN(C2=Nc3cc(Cl)ccc3N(NC(=O)c3ccccc3N3CCN(C)CC3)c3ccccc32)CC1 |
| 6.81 | 6.40 | CCCC(=O)NN1c2ccc(Cl)cc2N=C(N2CCN(C)CC2)c2ccccc21 |
| 7.06 | 5.52 | CN1CCN(C2=Nc3cc(Cl)ccc3N(NC(=O)c3ccccc3-n3ccnc3)c3ccccc32)CC1 |
| 7.07 | 5.72 | CN1CCN(C2=Nc3cc(Cl)ccc3N(NC(=O)C(F)(F)F)c3ccccc32)CC1 |
| 7.19 | 6.56 | CCOc1ccc2ccccc2c1C(=O)NN1c2ccc(Cl)cc2N=C(N2CCN(C)CC2)c2ccccc21 |
| 7.38 | 5.75 | CN1CCN(C2=Nc3cc(Cl)ccc3N(NC(=O)C3CCCCC3)c3ccccc32)CC1 |
| 7.55 |  | CN1CCN(C2=Nc3cc(Cl)ccc3N(NC(=O)c3cnc4ccccc4c3)c3ccccc32)CC1 |
| 7.92 | 6.43 | CN1CCN(C2=Nc3cc(Cl)ccc3N(NC(=O)c3ccccc3F)c3ccccc32)CC1 |
| 8.11 | 6.67 | CN1CCN(C2=Nc3cc(Cl)ccc3N(NC(=O)c3ccccc3N3CCCCC3)c3ccccc32)CC1 |
| 8.11 | 5.82 | Cc1ccc(C(=O)NN2c3ccc(Cl)cc3N=C(N3CCN(C)CC3)c3ccccc32)cc1 |
| 8.40 | 6.41 | CN1CCN(C2=Nc3cc(Cl)ccc3N(NC(=O)c3c(Cl)cc(Cl)cc3Cl)c3ccccc32)CC1 |
